Key:
[1] = biological target: T1, GHSR1a (Homo sapiens, UniProt Q92847); assay: Calcium FLIPR assay, GHSR-1a agonism; format: cell-based; parameters: Emax: unit not given here; conditions: HEK293/GHSR1a cells
T1 construct: expressed in transfected cells; host or cells: HEK293
Outline: (§1)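 Cells stably carrying human GHSR1a were plated a day ahead, dye-loaded, then given test compound. Agonist activity was the calcium rise over 2 minutes after compound addition at t=20 sec; antagonist activity was the reduction of the response to 10 nM ghrelin added together with compound.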

[2] = biological target: T1, GHSR1a; assay: Calcium FLIPR assay, GHSR-1a antagonism (reduction of ghrelin response); format: cell-based; conditions: HEK293/GHSR1a cells, ghrelin 10 nM
Outline: as §1

T1 sequence (Q92847 whole entry): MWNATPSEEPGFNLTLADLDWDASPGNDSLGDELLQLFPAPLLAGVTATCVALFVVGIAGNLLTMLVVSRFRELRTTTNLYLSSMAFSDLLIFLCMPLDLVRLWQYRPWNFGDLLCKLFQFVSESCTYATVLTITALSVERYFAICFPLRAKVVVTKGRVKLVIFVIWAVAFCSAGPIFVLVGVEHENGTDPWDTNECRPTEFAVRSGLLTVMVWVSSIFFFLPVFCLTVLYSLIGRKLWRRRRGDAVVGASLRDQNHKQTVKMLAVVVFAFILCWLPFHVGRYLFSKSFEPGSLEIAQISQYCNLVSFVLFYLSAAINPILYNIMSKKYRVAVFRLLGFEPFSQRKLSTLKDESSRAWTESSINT

Compound	EC50 [1] [nM]	Emax [1]	IC50 [2] [nM]
CCC(NC(=O)N(C)C1CCN(C)C1)c1ccc(-c2cncc(F)n2)c(Cl)c1Cl (stereo not drawn) [Compound H0864, 3-(1-(2,3-dichloro-4-(6-fluoropyrazin-2-yl)phenyl)propyl)-1-methyl-1-(1-methylpyrrolidin-3-yl)urea]	> 30000	–	718
Cc1nccnc1-c1ccc(C(CC2CC2)NC(=O)N(C)C2CCN(C)CC2)c(Cl)c1Cl (stereo not drawn) [Compound H0844, 3-(2-cyclopropyl-1-(2,3-dichloro-4-(3-methylpyrazin-2-yl)phenyl)ethyl)-1-methyl-1-(1-methylpiperidin-4-yl)urea]	> 30000	–	705
CCN1CCN(c2ncc(-c3ccc(C(C)NC(=O)N(C)C4CCN(C)CC4)c(Cl)c3Cl)cn2)CC1=O (stereo not drawn) [Compound H0814, 3-(1-(2,3-dichloro-4-(2-(4-ethyl-3-oxopiperazin-1-yl)pyrimidin-5-yl)phenyl)ethyl)-1-methyl-1-(1-methylpiperidin-4-yl)urea]	15	1097	926
COC(=O)c1cncc(-c2ccc(C(C)NC(=O)N(C)C3CCN(C)CC3)c(Cl)c2Cl)n1 (stereo not drawn) [Compound H0789, methyl 6-(2,3-dichloro-4-(1-(3-methyl-3-(1-methylpiperidin-4-yl)ureido)ethyl)phenyl)pyrazine-2-carboxylate]	26	1137	284
C#Cc1ccc(C(C)NC(=O)N(OC)C2CCN(C)CC2)c(Cl)c1Cl (stereo not drawn) [Compound H0742, 3-(1-(2,3-dichloro-4-ethynylphenyl)ethyl)-1-methoxy-1-(1-methylpiperidin-4-yl)urea]	> 30000	–	54
CN1CCC(N(C)C(=O)NC(CC2CC2)c2ccc(-c3cnccn3)c(Cl)c2Cl)C1 (stereo not drawn) [Compound H0874, 3-(2-cyclopropyl-1-(2,3-dichloro-4-(pyrazin-2-yl)phenyl)ethyl)-1-methyl-1-(1-methylpyrrolidin-3-yl)urea]	> 30000	–	115
CC(NC(=O)N(C)C1CCCCC1)c1ccc(-c2cncnc2)c(Cl)c1Cl (stereo not drawn) [Compound H0584, 1-cyclohexyl-3-(1-(2,3-dichloro-4-(pyrimidin-5-yl)phenyl)ethyl)-1-methylurea]	> 30000	–	1100
CC(NC(=O)N(C)C1CCN(C)CC1)c1ccc(C#N)c2ccccc12 (stereo not drawn) [Compound H0790, 3-(1-(4-cyanonaphthalen-1-yl)ethyl)-1-methyl-1-(1-methylpiperidin-4-yl)urea]	32	2810	35
CON(C(=O)NC(C)c1ccc(-c2cnccn2)c(Cl)c1Cl)C1CCN(C)CC1 (stereo not drawn) [Compound H0743, 3-(1-(2,3-dichloro-4-(pyrazin-2-yl)phenyl)ethyl)-1-methoxy-1-(1-methylpiperidin-4-yl)urea]	> 30000	–	94
CC(=O)N1CCC(N(C)C(=O)NC(C)c2ccc(-c3cncnc3)c(Cl)c2Cl)CC1 (stereo not drawn) [Compound H0588, 1-(1-acetylpiperidin-4-yl)-3-(1-(2,3-dichloro-4-(pyrimidin-5-yl)phenyl)ethyl)-1-methylurea]	> 30000	–	> 30000
CC(NC(=O)N(C)C1CCN(C)CC1)c1ccc(-c2cnc(NC(=O)C3CC3)nc2)c(Cl)c1Cl (stereo not drawn) [Compound H0807, N-(5-(2,3-dichloro-4-(1-(3-methyl-3-(1-methylpiperidin-4-yl)ureido)ethyl)phenyl)pyrimidin-2-yl)cyclopropanecarboxamide]	24	3669	14
CC(NC(=O)N(C)C1CCN(C)CC1)c1ccc(-c2cnc(NC3CC3)nc2)c(Cl)c1Cl (stereo not drawn) [Compound H0805, 3-(1-(2,3-dichloro-4-(2-(cyclopropylamino)pyrimidin-5-yl)phenyl)ethyl)-1-methyl-1-(1-methylpiperidin-4-yl)urea]	9	5433	4
CC(NC(=O)N(C)C1CCN(C)CC1)c1ccc(-c2ccncc2)c2ccccc12 (stereo not drawn) [Compound H0578, 1-methyl-1-(1-methylpiperidin-4-yl)-3-(1-(4-(pyridin-4-yl)naphthalen-1-yl)ethyl)urea]	> 30000	–	490
CC(NC(=O)C(C)N1CCN(C)CC1)c1ccc(-c2cnccn2)c(Cl)c1Cl (stereo not drawn) [Compound H0853, N-(1-(2,3-dichloro-4-(pyrazin-2-yl)phenyl)ethyl)-2-(4-methylpiperazin-1-yl)propanamide]	> 30000	–	1500

The remaining lines, values ahead:

EC50 [1] [nM]	Emax [1]	IC50 [2] [nM]	Compound
101	4433	59	CCc1ccc(C(C)NC(=O)N(C)C2CCN(C)CC2)c(Cl)c1Cl (stereo not drawn) [Compound H0628, 3-(1-(2,3-dichloro-4-ethylphenyl)ethyl)-1-methyl-1-(1-methylpiperidin-4-yl)urea]
422	–	69	CC(C)Oc1ccc(-c2ccc(C(C)NC(=O)N(C)C3CCN(C)CC3)c(Cl)c2Cl)cn1 (stereo not drawn) [Compound H0608, 3-(1-(2,3-dichloro-4-(6-isopropoxypyridin-3-yl)phenyl)ethyl)-1-methyl-1-(1-methylpiperidin-4-yl)urea]
263	2740	375	CC(NC(=O)N(C)C1CCN(C)CC1)c1ccc(-c2cnc(N(C)C)nc2)c(Cl)c1Cl (stereo not drawn) [Compound H0804, 3-(1-(2,3-dichloro-4-(2-(dimethylamino)pyrimidin-5-yl)phenyl)ethyl)-1-methyl-1-(1-methylpiperidin-4-yl)urea]
> 30000	–	980	CC(=O)c1cncc(-c2ccc(C(C)NC(=O)N(C)C3CCN(C)CC3)c(Cl)c2Cl)c1 (stereo not drawn) [Compound H0690, 3-(1-(4-(5-acetylpyridin-3-yl)-2,3-dichlorophenyl)ethyl)-1-methyl-1-(1-methylpiperidin-4-yl)urea]
> 30000	–	1600	CC(NC(=O)N(C)C1CCN(C)CC1)c1ccc(-c2cccc(C(N)=O)c2)c(Cl)c1Cl (stereo not drawn) [Compound H0612, 2′,3′-dichloro-4′-(1-(3-methyl-3-(1-methylpiperidin-4-yl)ureido)ethyl)-[1,1′-biphenyl]-3-carboxamide]
12	3100	3	CC(=O)c1ccsc1-c1ccc(C(C)NC(=O)N(C)C2CCN(C)CC2)c(Cl)c1Cl (stereo not drawn) [Compound H0688, 3-(1-(4-(3-acetylthiophen-2-yl)-2,3-dichlorophenyl)ethyl)-1-methyl-1-(1-methylpiperidin-4-yl)urea]
29	3424	187	CC(NC(=O)N(C)C1CCN(C)CC1)c1ccc(-c2ccc(C#N)s2)c(Cl)c1Cl (stereo not drawn) [Compound H0713, 3-(1-(2,3-dichloro-4-(5-cyanothiophen-2-yl)phenyl)ethyl)-1-methyl-1-(1-methylpiperidin-4-yl)urea]
600	2288	715	CC(NC(=O)N(C)C1CCN(C)CC1)c1ccc(Nc2cccs2)c(Cl)c1Cl (stereo not drawn) [Compound H0777, 3-(1-(2,3-dichloro-4-(thiophen-2-ylamino)phenyl)ethyl)-1-methyl-1-(1-methylpiperidin-4-yl)urea]
> 30000	–	103	CC(NC(=O)N(C)C1CCN(C)CC1)c1ccc(C=O)c(Cl)c1Cl (stereo not drawn) [Compound H0640, 3-(1-(2,3-dichloro-4-formylphenyl)ethyl)-1-methyl-1-(1-methylpiperidin-4-yl)urea]
22	3501	21	CC(NC(=O)N(C)C1CCN(C)CC1)c1ccc(-c2nccnn2)c(Cl)c1Cl (stereo not drawn) [Compound H0793, 3-(1-(2,3-dichloro-4-(1,2,4-triazin-3-yl)phenyl)ethyl)-1-methyl-1-(1-methylpiperidin-4-yl)urea]
> 30000	–	60	CC(NC(=O)N(C)C1CCN(C)CC1)c1ccc(C#Cc2cncnc2)c(Cl)c1Cl (stereo not drawn) [Compound H0753, 3-(1-(2,3-dichloro-4-(pyrimidin-5-ylethynyl)phenyl)ethyl)-1-methyl-1-(1-methylpiperidin-4-yl)urea]
45	3915	20	CC(NC(=O)N(C)C1CCN(C)CC1)c1ccc(-c2cnc(Cl)nc2)c(Cl)c1Cl (stereo not drawn) [Compound H0801, 3-(1-(2,3-dichloro-4-(2-chloropyrimidin-5-yl)phenyl)ethyl)-1-methyl-1-(1-methylpiperidin-4-yl)urea]
> 30000	–	84	CC(NC(=O)N(C)C1CCN(C)CC1)c1ccc(-c2cncc(-c3ccsc3)c2)c(Cl)c1Cl (stereo not drawn) [Compound H0747, 3-(1-(2,3-dichloro-4-(5-(thiophen-3-yl)pyridin-3-yl)phenyl)ethyl)-1-methyl-1-(1-methylpiperidin-4-yl)urea]
> 30000	–	1090	COC(=O)c1cncc(-c2ccc(C(C)NC(=O)N(C)C3CCN(C)CC3)c(Cl)c2Cl)c1 (stereo not drawn) [Compound H0635, methyl 5-(2,3-dichloro-4-(1-(3-methyl-3-(1-methylpiperidin-4-yl)ureido)ethyl)phenyl)nicotinate]
> 30000	–	495	CC(NC(=O)N(C)C1CCN(C)CC1)c1ccc(-c2cccc3c2cnn3C)c(Cl)c1Cl (stereo not drawn) [Compound H0512, 3-(1-(2,3-dichloro-4-(1-methyl-1H-indazol-4-yl)phenyl)ethyl)-1-methyl-1-(1-methylpiperidin-4-yl)urea]
> 30000	–	95	CC(O)C#Cc1ccc(C(C)NC(=O)N(C)C2CCN(C)CC2)c(Cl)c1Cl (stereo not drawn) [Compound H0733, 3-(1-(2,3-dichloro-4-(3-hydroxybut-1-yn-1-yl)phenyl)ethyl)-1-methyl-1-(1-methylpiperidin-4-yl)urea]
35	1690	18	COC(=O)/C=C/c1ccc(C(C)NC(=O)N(C)C2CCN(C)CC2)c(Cl)c1Cl (stereo not drawn) [Compound H0641, methyl (E)-3-(2,3-dichloro-4-(1-(3-methyl-3-(1-methylpiperidin-4-yl)ureido)ethyl)phenyl)acrylate]
